Experimental data: patent publication US20130317094A1, “USE OF ELLAGITANNINS AS INHIBITORS OF BACTERIAL QUORUM SENSING” (priority 2008, published 2013)

How the values were obtained:
[1] = tested on: P. aeruginosa PAO1-derived biomonitor strains pPCS 1001 and pPCS 1002; assay: Anti-QS agar well bioassay with lacZ biomonitor strains; type: cell-based, Pseudomonas aeruginosa; settings: 10 μl aliquot per well
Method: These strains harbor lacZ fusions to the QS gene promoter regions enabling blue/white selection for QS activity. […] Briefly, LB agar plates were seeded with a lawn of one of the biomonitor strains and allowed to dry for 1 hour. Small wells were then cut and aspirated from the agar, and 10 μl aliquots of each fraction were pipetted into each well. Wells were checked at 18 h and 24 h for zones of QS inhibition.
Each fraction was pipetted into a small well in an agar plate seeded with one of these biomonitor strains and the appropriate reagents for visualization of lacZ activity.

LasB elastase = assay: LasB elastolytic activity of culture supernatants (elastin Congo red); type: cell-based, Pseudomonas aeruginosa; settings: for decrease in LasB activity compared to control: 40 ug/ml; for Elastase Activity: PAO1 grown with 40 μg/ml of sample
Method: LasB elastase is a zinc metalloprotease capable of affecting the host immune system and destroying biological tissue (Bever & Iglewski, 1988). The elastolytic activity of culture supernatants was determined using elastin Congo red (ECR; Sigma, St. Louis, Mo.) (Ohman et al., 1980). There was a significant decrease in LasB activity compared to that of the control when PAO1 was grown in the presence of C. erectus at 1 mg/ml (70% decrease) or 40 ug/ml (60% decrease) (Table 1). Purified vescalagin and castalagin also affected significant reductions in LasB activity, with decreases of 67% and 63%, respectively (Table 1).

lasI = assay: QS gene expression, promoter-lacZ fusion β-galactosidase assay, lasI; type: cell-based, Pseudomonas aeruginosa; settings: 40 μg/ml of sample
Method: (§1) Samples were tested at the following concentrations: 1 mg/ml crude extract of C. erectus, 40 μg/ml crude extract, 40 μg/ml vescalagin, or 40 μg/ml castalagin. These additions were compared to a media-only control for the reduction of QS.

rhlI = settings: 40 μg/ml of sample
Method: as §1

rhlR = settings: 40 μg/ml of sample
Method: as §1

lasR = settings: 40 μg/ml of sample
Method: as §1

[2] = tested on: QS genes (lasI, lasR, rhlI, rhlR); assay: QS gene expression, summary over all tested QS genes; type: cell-based, Pseudomonas aeruginosa; settings: 40 μg/ml
Method: as §1

C4-AHL (BHL) = assay: AHL production, C4-AHL; type: cell-based, Pseudomonas aeruginosa; settings: for AHL production C4-AHL: 40 μg/ml of sample
Description: (§2) P. aeruginosa manufactures two main QS signaling molecules N-(3-oxododecanoyl)-L-homoserine lactone (OdDHL) and N-butanoyl-L-homoserine lactone (BHL) called autoinducers (Pearson et al., Proc. Natl. Acad. Sci. USA, 92:1490-1494, 1994). These molecules diffuse into the environment, and when they reach a putative threshold concentration, they activate the QS receptor genes.

pyoverdin = assay: Pyoverdin production (supernatant fluorescence); type: cell-based, Pseudomonas aeruginosa; settings: PAO1 grown with 40 μg/ml of sample
Description: Pyoverdins function as siderophores essentially starving host tissues by competing with mammalian transferrin for iron. They also promote pathogenicity by stimulating bacterial growth (Cox & Adams, 1985), while auto-regulating themselves and the production of other toxins. Relative concentration of pyoverdin was based on fluorescence of the supernatant at an excitation wavelength of 405 nm and an emission wavelength of 465 nm (Gemini EM microplate reader). […] This is consistent with our previous data on C. erectus (Adonizio et al., 2008b).

LasA protease = assay: LasA staphylolytic assay of culture supernatants; type: cell-based, Pseudomonas aeruginosa; settings: for LasA Activity: PAO1 grown with 40 μg/ml of sample; for decrease in LasA activity compared to control: crude extract printed 40 pg/ml, purified compounds 40 μg/ml
Method: LasA belongs to the p-lytic endopeptidase class of proteases (Kessler, 1995) and plays a major role in host tissue degradation (Kharazmi, 1989; Morihara & Homma, 1985). LasA protease activity was determined by measuring the ability of culture supernatants to lyse boiled S. aureus cells (Kong et al., Int. J. Med. Microbiol., 296:133-139, 2006). There was a significant decrease in LasA activity compared to that of the control when strain PAO1 was grown in the presence of C. erectus crude extract at 1 mg/ml (91% decrease), and a lesser effect at […] (26% decrease) (Table 1). Purified vescalagin and castalagin affected significant reductions in LasA activity as well, with decreases of 73% and 80%, respectively (Table 1).

C12-AHL (OdDHL) = assay: AHL production, C12-AHL; type: cell-based, Pseudomonas aeruginosa; settings: 40 μg/ml of sample
Description: as §2

LasB = settings: P. putida grown in the presence of 30 μg/ml; cited from earlier work
P. putida = settings: concentrations up to 30 μg/ml; cited from earlier work

Row | SMILES | anti-QS activity of HPLC fractions of Fraction A [1] | decrease in LasB activity compared to control (LasB elastase) | Elastase Activity (LasB elastase) | Gene Expression (measured via β-galactosidase activity of the lacZ fusion products) las1 (lasI) | Gene Expression (measured via β-galactosidase activity of the lacZ fusion products) rhll (rhlI) | Gene Expression (measured via β-galactosidase activity of the lacZ fusion products) rhlR (rhlR) | Gene Expression (measured via β-galactosidase activity of the lacZ fusion products) lasR (lasR) | effect on expression of QS genes [2] | AHL production C4-AHL (C4-AHL (BHL)) | reduction of BHL levels (C4-AHL (BHL); purified compound, 40 μg/ml) | Pyoverdin production (pyoverdin) | LasA Activity (LasA protease) | decrease in LasA activity compared to control (LasA protease) | AHL production C12-AHL (C12-AHL (OdDHL)) | decrease in LasB activity (LasB) | effect on growth (P. putida)
1 | O=C1OCC2OC(=O)c3cc(O)c(O)c(O)c3-c3c(O)c(O)c(O)c4c3C(=O)OC(C2OC(=O)c2cc(O)c(O)c(O)c2-c2c1cc(O)c(O)c2O)C1OC(=O)c2c-4c(O)c(O)c(O)c2C1O (centres unmarked) [Vescalagin, vescalagin] | activity | 67% | 47.2 ± 6.8 absorbance at OD495 per μg of protein × 1000 | 2049 ± 93 Milller Units | 3514 ± 306 Milller Units | 4129 ± 287 Milller Units | 1703 ± 297 Milller Units | reduced all QS gene levels including rhlI to a greater extent than castalagin | 0.489 ± 0.01 µM | 21% | 4226 ± 138 fluorescence (405/465 nm) per μg of protein | 0.066 ± 0.008 reduction in OD600/hour per μg total protein | 73% | 1.227 ± 0.16 µM |  | 
2 | O=C1OC[C@H]2OC(=O)c3cc(O)c(O)c(O)c3-c3c(O)c(O)c(O)c4c3C(=O)O[C@H]([C@H]3OC(=O)c5c-4c(O)c(O)c(O)c5[C@H]3O)[C@@H]2OC(=O)c2cc(O)c(O)c(O)c2-c2c1cc(O)c(O)c2O [Castalagin, castalagin] | activity | 63% | 52.7 ± 9.0 absorbance at OD495 per μg of protein × 1000 | 2465 ± 116 Milller Units | 4542 ± 199 Milller Units | 4904 ± 348 Milller Units | 2160 ± 509 Milller Units | reduced all QS gene levels save for rhlI | 0.703 ± 0.01 µM |  | 4207 ± 150 fluorescence (405/465 nm) per μg of protein | 0.048 ± 0.003 reduction in OD600/hour per μg total protein | 80% | 1.389 ± 0.20 µM |  | 
3 | O=c1oc2c(O)c(O)cc3c(=O)oc4c(O)c(O)cc1c4c23 [ellagic acid] |  |  |  |  |  |  |  |  |  |  |  |  |  |  | 40% | no effect
